{"source": "patent US20250319015A1", "about": "“VACCINIUM MACROCARPON EXTRACT AND ANTI-AGEING COSMETIC EFFECTS THEREOF” (SOCIETE INDUSTRIELLE LIMOUSINE D'APPLICATION BIOLOGIQUE, priority 2021, published 2025)", "key": {"MMP-1": {"test_system": "MMP-1", "assay": "MMP-1 level by ELISA on older human fibroblasts subjected to UVA", "assay_type": "cell-based", "settings": "UVA-irradiated older fibroblasts, 1 μM Retinol", "procedure": "The older human fibroblasts are seeded and incubated at 37° C. in an atmosphere containing 5% CO2. The irradiations are carried out using a UV lamp with UVA intensities of 10 J/cm2.\n(§2) The cells are then incubated at 37° C. in an atmosphere containing 5% CO2 for 48 hours."}, "claudin-1": {"test_system": "claudin-1", "assay": "Claudin-1 synthesis in reconstructed epidermises (immunohistofluorescence)", "assay_type": "cell-based, human", "settings": "older reconstructed epidermises, 10 μM Retinol", "method": "This study was carried out on normal and older reconstructed epidermises. The epidermal construction was evaluated using a Hematoxylin Eosin (HE) stain and the synthesis of the barrier function markers by immunohistofluorescence. The procedure of the study is described below. […] The epidermides are recovered, fixed, dehydrated, and enclosed in paraffin. Sections (4 μm) are then made using a microtome. […] Viewing is performed using a microscope coupled to an image analysis system. The thickness of the epidermises obtained was measured on the histological sections produced. The rate of the various synthesized markers is proportional to the intensity of green fluorescence present on the reconstructed epidermises. A quantitative analysis of the images was carried out using an image analysis script. The results are expressed in arbitrary units (AU)."}, "[1]": {"test_system": "older reconstructed epidermises", "assay": "Thickness of reconstructed epidermises (hematoxylin eosin stain)", "assay_type": "cell-based, human", "settings": "10 μM Retinol", "method": "This study was carried out on normal and older reconstructed epidermises. The epidermal construction was evaluated using a Hematoxylin Eosin (HE) stain and the synthesis of the barrier function markers by immunohistofluorescence. The procedure of the study is described below. […] The epidermides are recovered, fixed, dehydrated, and enclosed in paraffin. Sections (4 μm) are then made using a microtome. The analysis of the thickness of the reconstructed epidermises is carried out by hematoxylin eosin (HE) stain. Viewing is performed using a microscope coupled to an image analysis system. The thickness of the epidermises obtained was measured on the histological sections produced."}, "hyaluronic acid": {"test_system": "hyaluronic acid", "assay": "Hyaluronic acid synthesis by ELISA on older human fibroblasts", "assay_type": "cell-based", "settings": "1 μM Retinol", "procedure": "The older human fibroblasts are seeded and incubated at 37° C. in an atmosphere containing 5% CO2.\nas §2"}, "[2]": {"test_system": "healthy Caucasian female volunteers", "assay": "Transepidermal water losses (Tewameter), Caucasian volunteers", "assay_type": "in vivo, human", "settings": "Retinol 0.075%", "procedure": "Transepidermal water losses (TEWL) measurements at the cheeks were carried out using a Tewameter® before and after 21 and 42 days of twice-daily application.\nThis study was carried out on 3 groups of 18 healthy, female volunteers, aged 45 to 66 years and presenting with crow's feet wrinkles. Each of the volunteers applied two of the three formulae to half the face twice-daily in a randomized manner for 42 days."}, "[3]": {"test_system": "human keratinocytes from older donors (≥60 years)", "assay": "Gene expression by quantitative PCR on older human keratinocytes", "assay_type": "cell-based", "settings": "1 μM Retinol", "method": "(§1) The procedure of the study is described below. The young and older human cells are seeded and incubated at 37° C. […] After several days, the cells are recovered and the total RNA extracted. The RNAs were reverse-transcribed and the complementary DNAs obtained were analyzed by the quantitative PCR technique. The mRNAs of internal reference controls were analyzed in parallel with the mRNAs of the markers involved in the barrier function of the epidermis, in the DEJ and in the dermal matrix. The incorporation of fluorescence is measured continuously using a thermal cycler. The RQ (relative quantification) analysis is performed using software."}, "older human cells": {"test_system": "older human cells", "assay": "Gene expression by quantitative PCR, structural elements of the DEJ, older cells", "assay_type": "cell-based", "settings": "1 μM Retinol", "method": "This study was carried out on 34 genes involved in the various processes related to the establishment of: • the skin barrier function: proliferation, hydration, cohesion, differentiation, desquamation, innate immunity, anti-oxidant and inflammation system (cf. Table 9: Proliferation, Hydration, Cohesion, Differentiation, Anti-Radical and Inflammation). • the dermal-epidermal junction DEJ; • the dermal matrix; organization and degradation of the fibers, hydration and inflammation (cf. Table 9: Matrix Organization, Matrix Degradation, Hydration, Proteoglycan, Growth and Inflammation Factors). […] The procedure of the study is described below. The young and older human cells are seeded and incubated at 37° C. […] After several days, the cells are recovered and the total RNA extracted. The RNAs were reverse-transcribed and the complementary DNAs obtained were analyzed by the quantitative PCR technique. The mRNAs of internal reference controls were analyzed in parallel with the mRNAs of the markers involved in the barrier function of the epidermis, in the DEJ and in the dermal matrix. The incorporation of fluorescence is measured continuously using a thermal cycler. The RQ (relative quantification) analysis is performed using software."}, "[4]": {"test_system": "older human fibroblasts by successive replications", "assay": "Gene expression by quantitative PCR on older human fibroblasts", "assay_type": "cell-based", "settings": "1 μM Retinol", "method": "as §1"}}}
{"smiles": "CC1=C(/C=C/C(C)=C/C=C/C(C)=C/CO)C(C)(C)CCC1", "note": "[Retinol, retinol]", "values": [{"measurement": "Ability to reduce the MMP-1 level (%)", "setting": "MMP-1", "value": "+33%"}, {"measurement": "MMP-1 content (ng/mg proteins)", "setting": "MMP-1; 48 hours", "value": 46, "unit": "ng/mg proteins"}, {"measurement": "Ability to restore claudin-1 synthesis (%)", "setting": "claudin-1", "value": 0, "unit": "%"}, {"measurement": "Synthesis of claudin-1 (×10^4 AU)", "setting": "claudin-1; 48 hours", "value": "136 ×10^4 AU"}, {"measurement": "Ability to restore the thickness of the epidermis (%)", "setting": "[1]", "value": "+94%"}, {"measurement": "Measurement of the thickness of the epidermis (μm)", "setting": "[1]; 48 hours", "value": 59, "unit": "μm"}, {"measurement": "Synthesis of hyaluronic acid (ng/mg proteins)", "setting": "hyaluronic acid; Older fibroblasts, 48 hours", "value": 4112, "unit": "ng/mg proteins"}, {"measurement": "Content of hyaluronic acid/control (%)", "setting": "hyaluronic acid; older fibroblasts", "value": "+8%"}, {"measurement": "Water loss, change compared to placebo", "setting": "[2]; D 21", "value": "+24%"}, {"measurement": "Water loss, change compared to placebo", "setting": "[2]; D 21, listed as retinol", "value": "+24%"}, {"measurement": "Water loss, change compared to placebo", "setting": "[2]; D 42", "value": "+15%"}, {"measurement": "Water loss, change compared to placebo", "setting": "[2]; D 42, listed as retinol", "value": "+15%"}, {"measurement": "AQP3: Efficacy of retinol/older control (%)", "setting": "[3]", "value": "+13%"}, {"measurement": "CD44: Efficacy of retinol/older control (%)", "setting": "[3]", "value": "+77%"}, {"measurement": "CLDN1: Efficacy of retinol/older control (%)", "setting": "[3]", "value": "−52", "unit": "%"}, {"measurement": "CXCL8: Efficacy of retinol/older control (%)", "setting": "[3]", "value": "+189%"}, {"measurement": "DSG: Efficacy of retinol/older control (%)", "setting": "[3]", "value": "−99", "unit": "%"}, {"measurement": "FLG: Efficacy of retinol/older control (%)", "setting": "[3]", "value": "−76", "unit": "%"}, {"measurement": "HAS3: Efficacy of retinol/older control (%)", "setting": "[3]", "value": "+425%"}, {"measurement": "IVL: Efficacy of retinol/older control (%)", "setting": "[3]", "value": "+126%"}, {"measurement": "KRT10: Efficacy of retinol/older control (%)", "setting": "[3]", "value": "−97", "unit": "%"}, {"measurement": "LOR: Efficacy of retinol/older control (%)", "setting": "[3]", "value": "−95", "unit": "%"}, {"measurement": "MKI67: Efficacy of retinol/older control (%)", "setting": "[3]", "value": "+44%"}, {"measurement": "S100A7: Efficacy of retinol/older control (%)", "setting": "[3]", "value": "+1384%"}, {"measurement": "S100A8: Efficacy of retinol/older control (%)", "setting": "[3]", "value": "+23%"}, {"measurement": "S100A9: Efficacy of retinol/older control (%)", "setting": "[3]", "value": "+108%"}, {"measurement": "SOD1: Efficacy of retinol/older control (%)", "setting": "[3]", "value": "+7%"}, {"measurement": "TGM1: Efficacy of retinol/older control (%)", "setting": "[3]", "value": "−31", "unit": "%"}, {"measurement": "AQP3 expression (qPCR)", "setting": "[3]; young cells control=100", "value": 69}, {"measurement": "CD44 expression (qPCR)", "setting": "[3]; young cells control=100", "value": 147}, {"measurement": "CLDN1 expression (qPCR)", "setting": "[3]; young cells control=100", "value": 33}, {"measurement": "CXCL8 expression (qPCR)", "setting": "[3]; young cells control=100", "value": 729}, {"measurement": "DSG expression (qPCR)", "setting": "[3]; young cells control=100", "value": 1}, {"measurement": "FLG expression (qPCR)", "setting": "[3]; young cells control=100", "value": 9}, {"measurement": "HAS3 expression (qPCR)", "setting": "[3]; young cells control=100", "value": 357}, {"measurement": "IVL expression (qPCR)", "setting": "[3]; young cells control=100", "value": 120}, {"measurement": "KRT10 expression (qPCR)", "setting": "[3]; young cells control=100", "value": 2}, {"measurement": "LOR expression (qPCR)", "setting": "[3]; young cells control=100", "value": 1}, {"measurement": "MKI67 expression (qPCR)", "setting": "[3]; young cells control=100", "value": 95}, {"measurement": "S100A7 expression (qPCR)", "setting": "[3]; young cells control=100", "value": 564}, {"measurement": "S100A8 expression (qPCR)", "setting": "[3]; young cells control=100", "value": 256}, {"measurement": "S100A9 expression (qPCR)", "setting": "[3]; young cells control=100", "value": 397}, {"measurement": "SOD1 expression (qPCR)", "setting": "[3]; young cells control=100", "value": 95}, {"measurement": "TGM1 expression (qPCR)", "setting": "[3]; young cells control=100", "value": 47}, {"measurement": "COL4A1: Efficacy of retinol/older control (%)", "setting": "older human cells", "value": "−5", "unit": "%"}, {"measurement": "COL7A1: Efficacy of retinol/older control (%)", "setting": "older human cells", "value": "−21", "unit": "%"}, {"measurement": "COL17A1: Efficacy of retinol/older control (%)", "setting": "older human cells", "value": "−16", "unit": "%"}, {"measurement": "LAMA3: Efficacy of retinol/older control (%)", "setting": "older human cells", "value": "−9", "unit": "%"}, {"measurement": "COL4A1 expression (qPCR)", "setting": "older human cells; young cells control=100", "value": 38}, {"measurement": "COL7A1 expression (qPCR)", "setting": "older human cells; young cells control=100", "value": 68}, {"measurement": "COL17A1 expression (qPCR)", "setting": "older human cells; young cells control=100", "value": 81}, {"measurement": "LAMA3 expression (qPCR)", "setting": "older human cells; young cells control=100", "value": 94}, {"measurement": "ACAN: Efficacy of retinol/older control (%)", "setting": "[4]", "value": "−74", "unit": "%"}, {"measurement": "AQP3: Efficacy of retinol/older control (%)", "setting": "[4]", "value": "+30%"}, {"measurement": "BGN: Efficacy of retinol/older control (%)", "setting": "[4]", "value": "+24%"}, {"measurement": "COL1A1: Efficacy of retinol/older control (%)", "setting": "[4]", "value": "+25%"}, {"measurement": "COL3A1: Efficacy of retinol/older control (%)", "setting": "[4]", "value": "+67%"}, {"measurement": "CXCL8: Efficacy of retinol/older control (%)", "setting": "[4]", "value": "+282%"}]}
